In PubChem BioAssay AID1949 (Southern Research Institute, 2009):
Converted amounts (≈) assume the structure as drawn. Results filed as inconclusive are left out. The source made the active and inactive calls. How the calls were made is not given here.

Tested on: M. tuberculosis H37Rv growth inhibition
Assay: Confirmatory growth inhibition assay against Mycobacterium tuberculosis H37Rv, potency (AID 1949);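 further: bacteria grown 7 days with compound before Alamar blue readout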

Q: Which IC50 does the source give for `C#CCOc1c(Br)cc(/C=C/[N+](=O)[O-])cc1OC` here?
A: 38.2 µg/mL (≈ 122 µM)

Q: For `Cc1ccnc(NC(=O)COc2ccc([N+](=O)[O-])cc2)c1`, which IC50 is on record?
A: 0.43 µg/mL (≈ 1.5 µM)

Q: How did the IC50 turn out when `O=C(CC12CC3CC(CC(C3)C1)C2)NC(=S)Nc1ccc(-c2nc3ccccc3[nH]2)cc1` was run?
A: 1.46 µg/mL (≈ 3.28 µM)

Q: For `O=[N+]([O-])c1ccccc1S(=O)(=O)Nc1ccc(S(=O)(=O)Nc2nccs2)cc1`, which IC50 is on record?
A: 3.8 µg/mL (≈ 8.63 µM)

Q: Which IC50 does the source give for `O=C(NNC(=S)NCc1ccc(F)cc1)c1ccncc1` here?
A: 5.78 µg/mL (≈ 19 µM)

Q: For `CC(C)COc1ccc(-c2nn(-c3ccccc3)cc2C(=O)Nc2nccs2)cc1`, which IC50 is on record?
A: 0.19 µg/mL (≈ 0.454 µM)

Q: For `CC(C)(C)c1ccc(OCCN2C(=O)C(=O)c3cc(Br)ccc32)cc1`, which IC50 is on record?
A: 1.49 µg/mL (≈ 3.7 µM)

Q: For `Cc1cc(C)c2c(c1)c(-c1ccccc1)c(-c1ccccc1)n2CC(O)CN1CCN(CCO)CC1` (centres undefined), which IC50 is on record?
A: 3.02 µg/mL (≈ 6.24 µM)

Q: Which IC50 does the source give for `CCC(=O)Oc1cccc2ccc(/C=C/c3ccc(C(=O)OC)cc3)nc12` here?
A: 3.21 µg/mL (≈ 8.88 µM)

Q: For `Cc1cc(OCCCn2ccnc2)cc(C(C)C)c1`, which IC50 is on record?
A: 6.24 µg/mL (≈ 24.2 µM)

Q: Which IC50 does the source give for `O=C(Nc1nc2c(s1)CCCC2)c1ccc(Br)s1` here?
A: 0.62 µg/mL (≈ 1.81 µM)

Q: For `O=C(O)c1ccc(NC(CC(=O)c2ccccc2)c2ccc(Br)cc2)cc1` (centres undefined), which IC50 is on record?
A: 7.58 µg/mL (≈ 17.9 µM)

Q: For `CCOC(=O)CCc1c(C)c(C#N)c2[nH]c3ccccc3n2c1=O`, which IC50 is on record?
A: < 0.1 µg/mL

Q: `Cc1cc(Cl)ccc1N1CCN(CCNC(=O)Nc2ccc(F)cc2)CC1` was tested. Which IC50 did it give?
A: > 50 µg/mL (inactive)

Q: How did the IC50 turn out when `O=C1OCCC1Sc1cccc2cccnc12` (centres undefined) was run?
A: 7.31 µg/mL (≈ 29.8 µM)

Q: Which IC50 does the source give for `CCn1c(Sc2ncnc3ccccc23)nc2ccccc21` here?
A: 2.77 µg/mL (≈ 9.04 µM)

Q: `CCOC(=O)/C=C/C(=O)Nc1sc2c(c1C(=O)OC)CCC2` was tested. Which IC50 did it give?
A: 0.57 µg/mL (≈ 1.76 µM)

Q: How did the IC50 turn out when `O=C(CNS(=O)(=O)c1cccc(C(F)(F)F)c1)N1CCN(c2ccc(Cl)c(Cl)c2)CC1` was run?
A: 4.79 µg/mL (≈ 9.65 µM)

Q: How did the IC50 turn out when `Oc1ccc(Br)cc1-c1nc(-c2cccs2)c(-c2cccs2)[nH]1` was run?
A: 1.55 µg/mL (≈ 3.84 µM)

Q: Which IC50 does the source give for `COc1ccc(C(=O)NC(=S)Nc2ccc([N+](=O)[O-])cc2O)cc1Br` here?
A: < 0.1 µg/mL

Q: How did the IC50 turn out when `CCCCC(=O)Nc1ccc(C(=O)N2CCN(c3cccc(C(F)(F)F)c3)CC2)cc1` was run?
A: 9.86 µg/mL (≈ 22.7 µM)

Q: For `O=C(NCCCN1CCN(c2ccc(F)cc2)CC1)NC12CC3CC(CC(C3)C1)C2`, which IC50 is on record?
A: > 50 µg/mL (inactive)

Q: `CC(=O)Oc1c(C(=O)c2ccccc2)sc2ccccc12` was tested. Which IC50 did it give?
A: 0.71 µg/mL (≈ 2.4 µM)

Q: For `CCOc1ccc(NC(=O)C(C)Oc2ccc(C)c(C)c2)cc1` (centres undefined), which IC50 is on record?
A: 4.04 µg/mL (≈ 12.9 µM)

Q: `Nc1ccccc1NCCOc1ccccc1` was tested. Which IC50 did it give?
A: 1.01 µg/mL (≈ 4.42 µM)

Q: Which IC50 does the source give for `N#Cc1cc2c(nc1SCC(=O)OCc1ccccc1)CCC2` here?
A: 0.41 µg/mL (≈ 1.26 µM)

Q: `Fc1ccc(-c2nn(-c3ccccc3)cc2CNCc2ccccc2)cc1` was tested. Which IC50 did it give?
A: 5.86 µg/mL (≈ 16.4 µM)

Q: `O=C(CC1COc2ccccc2O1)Nc1ccc(Br)cc1` (centres undefined) was tested. Which IC50 did it give?
A: 11 µg/mL (≈ 31.6 µM)

Q: With `O=C1CC(c2ccc(Cl)cc2)CC2=C1C(c1ccc(C(F)(F)F)cc1)Nc1ccccc1N2` (centres undefined) as the compound, how does the IC50 read?
A: 2.14 µg/mL (≈ 4.56 µM)

Q: For `O=C(/C=C/c1cccc(C(F)(F)F)c1)Nc1cccc(C(F)(F)F)c1`, which IC50 is on record?
A: 0.9 µg/mL (≈ 2.51 µM)

Q: Which IC50 does the source give for `CCOC(=O)COc1ccc(S(=O)(=O)N2CCC(C)CC2)cc1` here?
A: 1.35 µg/mL (≈ 3.95 µM)

Q: For `COc1ccc(N2CCN(c3ncnc4sc5c(c34)CCCC5)CC2)cc1`, which IC50 is on record?
A: > 50 µg/mL (inactive)

Q: Which IC50 does the source give for `CCCCCn1c(NCc2cccs2)nc2ccccc21` here?
A: 3.41 µg/mL (≈ 11.4 µM)

Q: Which IC50 does the source give for `N#Cc1ccc(-c2ccc(OCC(=O)Nc3cccnc3)cc2)cc1` here?
A: < 0.1 µg/mL

Q: Which IC50 does the source give for `CN(C)S(=O)(=O)c1ccc(NC(=S)NC(=O)CCCOc2ccc(Cl)cc2Cl)cc1` here?
A: 5.38 µg/mL (≈ 11 µM)

Q: Which IC50 does the source give for `O=C(Nc1ccc(Cl)c(C(F)(F)F)c1)c1csc2c1CCCC2` here?
A: 2.66 µg/mL (≈ 7.39 µM)

Q: For `CCOC(=O)Cc1nc2cc(Cl)ccc2o1`, which IC50 is on record?
A: 10.4 µg/mL (≈ 43.5 µM)

Q: With `CCCCn1c(O)c(/C=C2\C=CC=N2)c(=O)[nH]c1=O` as the compound, how does the IC50 read?
A: < 0.1 µg/mL

Q: For `O=S1(=O)C=C(Sc2nc3ccccc3s2)c2ccccc21`, which IC50 is on record?
A: < 0.1 µg/mL

Q: With `Cc1ccc(Cl)cc1N1CCN(CC(O)COc2ccc(Cl)cc2)CC1` (centres undefined) as the compound, how does the IC50 read?
A: 4.57 µg/mL (≈ 11.6 µM)

Q: How did the IC50 turn out when `Cc1cc(OCCOCCn2ccnc2)cc(C(C)C)c1` was run?
A: > 50 µg/mL (inactive)

Q: For `Cc1ccc(-c2csc3nc(SCC(N)=O)n(-c4ccccc4)c(=O)c23)cc1C`, which IC50 is on record?
A: 2.98 µg/mL (≈ 7.07 µM)

Q: `O=C(Nc1ccc(Cl)c(C(F)(F)F)c1)C1CCN(C(=O)c2ccc(Br)cc2)CC1` was tested. Which IC50 did it give?
A: 7.21 µg/mL (≈ 14.7 µM)

Q: Which IC50 does the source give for `COc1ccc(-c2nc(-c3ccc(O)cc3O)cs2)cc1OC` here?
A: 0.17 µg/mL (≈ 0.516 µM)

Q: `Cc1nc2c(-c3ccccc3)c[nH]n2c(=O)c1Cc1ccccc1` was tested. Which IC50 did it give?
A: > 50 µg/mL (inactive)

Q: Which IC50 does the source give for `Cc1sc2ncn(C(C)C(=O)OC3CCCCC3)c(=O)c2c1C` (centres undefined) here?
A: 1.11 µg/mL (≈ 3.32 µM)

Q: How did the IC50 turn out when `COc1ccc(C(C)(C)C)cc1NC(=S)Nc1ccc(Cl)c(Cl)c1` was run?
A: 1.43 µg/mL (≈ 3.73 µM)

Q: For `O=C(Oc1ccc(Cl)c2cccnc12)c1cccs1`, which IC50 is on record?
A: 0.37 µg/mL (≈ 1.28 µM)

Q: How did the IC50 turn out when `COc1ccc(NC(=S)NC(=O)CCc2ccccc2)cc1` was run?
A: 1.92 µg/mL (≈ 6.11 µM)

Q: How did the IC50 turn out when `COc1ccc(-c2cc(C(=O)N/N=C/C=C/c3ccccc3OC)[nH]n2)cc1` was run?
A: < 0.1 µg/mL

Q: Which IC50 does the source give for `COC(=O)COc1ccc(-c2ccc(C)cc2)cc1` here?
A: 0.22 µg/mL (≈ 0.858 µM)

Q: `Cc1cc(C(C)(C)C)ccc1OCCCCn1ccnc1` was tested. Which IC50 did it give?
A: 1.4 µg/mL (≈ 4.89 µM)

Q: Which IC50 does the source give for `COC(=O)COc1ccc(NC(=O)COc2ccc(C)cc2C)cc1` here?
A: < 0.1 µg/mL

Q: With `O=C(Oc1cccc2cccnc12)c1ccc(Cl)c(S(=O)(=O)N2CCOCC2)c1` as the compound, how does the IC50 read?
A: 1.48 µg/mL (≈ 3.42 µM)

Q: With `CCOC(=O)c1c(-c2ccccc2)oc2ccc(OC(=O)c3cccs3)cc12` as the compound, how does the IC50 read?
A: > 50 µg/mL (inactive)

Q: With `CN1CCN(c2ccc(C(=O)Nc3cccc(Cl)c3)cc2[N+](=O)[O-])CC1` as the compound, how does the IC50 read?
A: 4.41 µg/mL (≈ 11.8 µM)

Q: How did the IC50 turn out when `O=[N+]([O-])c1cccc(NC(=S)Nc2cc(C(F)(F)F)ccc2F)c1` was run?
A: 19 µg/mL (≈ 52.9 µM)

Q: For `COc1cccc(NC(=O)CSc2ccc(Br)cc2)c1`, which IC50 is on record?
A: 11.7 µg/mL (≈ 33.2 µM)

Q: How did the IC50 turn out when `Cc1ccc(C(=O)Nc2ccc(C(F)(F)F)cc2)s1` was run?
A: 4.67 µg/mL (≈ 16.4 µM)
